Measured values taken from patent US5576296A, “Galanin antagonist” (priority 1991, dated 1996).
Square brackets hold non-standard residues; d marks the D form. Ends that are not written are not given here. Peptide text beside a SMILES is read from it.

Key:
galanin receptor [1] = experiment: Displacement of 125I-galanin, membranes from rat hypothalamus; assay type: binding; settings: for IC50: displacement experiments in rat hypothalamus, 125I-galanin
Procedure: Adult male rats (Sprague-Dawley, 180-200 g) were decapitated, the hypothalami quickly dissected and homogenized (10% mass/vol.) in 0.05M TRIS-Cl buffer, pH 7.4. The homogenate was diluted tenfold and centrifuged at 1000 × g for 10 min. The supernatant was centrifuged at 10,000 × g for 45 min and the pellet resuspended in 5 mM Hepes buffered Krebs-Ringer solution (137 mM NaCl, 2.68 mM KCl, 1.8 mM CaCl2 1 g/1 glucose), pH 7.4 to yield a final protein concentration of 1.0-1.5 mg/ml.
Displacement experiments were carried out in a final volume of 400 μl of Hepes-buffered (5 mM) Krebs-Ringer solution, 0.05% (w/v) of BSA (pH 7.4 ) supplemented with bacitracin (1 mg/ml ) in the presence of 0.1-0.2 nM 1251-galanin, the membrane preparation from rat hypothalami and increasing concentrations (10-12, 10^-6M) of unlabeled galanin or of other galanin recepto-ligands. Samples were incubated for 30 min at 37° C. Incubation was terminated by the addition of 10 ml of ice-cold Hepes-buffered Krebs-Ringer solution, followed by rapid filtration over Whatman GF/C filters, precoated for 5-6 hours in 0.3% (v/v) of polyethylencimine solution. The filters were washed with 10 ml of assay solution. Radioactivity retained on the filters was determined in a Packard gamma counter. Specific binding was defined as that displaceable by 1 μM galanin.
The 1C50 values of the displacing ligands were calculated by fitting of the experimental data on a Macintosh SE by means of a nonlincar least squares method using the program "KaleidaGraph".

galanin receptor [2] = experiment: Displacement of 125I-galanin from membranes of Rin m 5F cells; assay type: binding, rat; settings: Rin m 5F membranes
Procedure: 4) Ligand binding studies were conducted. Displacement of ^125 I-galanin by galanin, galanin fragment (1-13), Substance P fragment (4-11), galanin fragment (1-13) + Substance P fragment (4-11) in equimolar concentrations and the peptides of the invention M15, M35 and M34, A was studied.
Synthetic porcine galanin(1-29) was iodinated by chloramine-T-method to yield ^125 I-monoiodo-Tyr^26 -porcine galanin (specific activity 1800-2000 Ci/mmol), (as described by Land T., et al in: Methods in Neurosciences, Ed. M. Conn, 5, 1991, 225-234), and employed in ligand binding studies carried out at equilibrium.
The establishment and cell culture of Rin m 5F (a rat pancreatic β-tumor cell-line) cells have been described earlier (Gazdav A. F., et. al. Proc. Natl. Acad. Sci. USA, 77 (1980) 3519-3523). Briefly, the cells were grown in RPMI-1640 (Gibco) medium containing 10% (v/v) fetal calf serum, 2.06 mM L-gluthamine, 100 IU/ml penicillin and 100 μg/ml streptomycin in 10% CO2 -90% air 37° C. They were passaged every 5 days. The cells were detached from the surface of the bottles using 0.25% trypsin containing 1 mM EDTA and centrifuged at 2000 × g for 5 min at 4° C. The pellet was exposed for 15 min to hypoosmotic 5 mM HEPES buffer (pH 7.4). The suspension was centrifuged at 20000 × g for 15 min, the resulting pellet was resuspended in bacitracin-containing ([…]) 5 mM HEPES-buffered Krebs-Ringer solution (137 mM NaCl, […], 1.8 mM CaCl2, 1 g/1 glucose), pH 7.4, and used immediately in equilibrium binding experiments.
Displacement experiments were carried out in a final volume of 400 μl of bacitracin-containing (1 mg/ml) HEPES-buffered (5 mM) Krebs-Ringer solution, 0.05% (w/v) of BSA (pH 7.4) in the presence of 0.1-0.2 nM ^125 I-galanin, the membrane preparation and the increasing concentrations (10^-12 -10^-6 M) of unlabeled porcine galanin or of other galanin receptor ligands. Samples were incubated for 30 min at 37° C. Incubation was terminated by the addition of 10 ml of ice-cold HEPES-buffered Krebs-Ringer solution, followed by rapid filtration over Whatman GF/C filters, precoated for 5-6 hours in 0.3% (v/v) of polyethyleneimine solution. Filters were washed with 10 ml of assay solution. Radioactivity retained on the filters was determined in a Packard gamma counter. Specific binding was defined as that displaceable by 1 μM galanin (or appropriate concentration of a displacer).
The IC50 values of the displacing ligands were calculated from the computer-generated IC50 values as described by Land, T., et. al. (ibid).
Fitting of the experimental data was carried out on a Macintosh SE by means of a nonlinear least squares method using the Macintosh program "KaleidGraph".

Row | Compound | IC50 (galanin receptor [1]) [nM] | other results
1 | CC(C)C[C@H](NC(=O)[C@H](CC(C)C)NC(=O)[C@@H](Cc1c[nH]c2ccccc12)NC(=O)[C@H](Cc1ccccc1)NC(=O)[C@@H](Cc1c[nH]c2ccccc12)NC(=O)[C@H](CCC(N)=O)NC(=O)[C@H](CCC(N)=O)NC(=O)[C@@H]1CCCN1C(=O)[C@H](CCCCN)NC(=O)[C@@H]1CCCN1C(=O)[C@@H](CCCNC(=N)N)NC(=O)[C@@H]1CCCN1C(=O)CNC(=O)[C@H](CC(C)C)NC(=O)[C@H](CC(C)C)NC(=O)[C@H](Cc1ccc(O)cc1)NC(=O)CNC(=O)[C@H](C)NC(=O)[C@H](CO)NC(=O)[C@H](CC(N)=O)NC(=O)[C@H](CC(C)C)NC(=O)[C@@H](NC(=O)[C@H](Cc1c[nH]c2ccccc12)NC(=O)CN)[C@@H](C)O)C(N)=O [C 7, Galanin(1-12)-Pro-Spantide amide] (H-GWTLNSAGYLLGP[dR]PKPQQ[dW]F[dW]LL-NH2; N-terminus assumed) | 0.2 | 
2 | CC(C)C[C@H](NC(=O)[C@H](CC(C)C)NC(=O)[C@H](Cc1ccc(O)cc1)NC(=O)CNC(=O)[C@H](C)NC(=O)[C@H](CO)NC(=O)[C@H](CC(N)=O)NC(=O)[C@H](CC(C)C)NC(=O)[C@@H](NC(=O)[C@H](Cc1c[nH]c2ccccc12)NC(=O)CN)[C@@H](C)O)C(=O)NCC(=O)N1CCC[C@H]1C(=O)O [Galanin fragment (1-13), reference compound] |  | IC50 (galanin receptor [2]; read-out: IC50): 100 nM
3 | CC(C)C[C@H](NC(=O)[C@H](CC(C)C)NC(=O)[C@H](Cc1ccc(O)cc1)NC(=O)CNC(=O)[C@H](C)NC(=O)[C@H](CO)NC(=O)[C@H](CC(N)=O)NC(=O)[C@H](CC(C)C)NC(=O)[C@@H](NC(=O)[C@H](Cc1c[nH]c2ccccc12)NC(=O)CN)[C@@H](C)O)C(=O)NCC(=O)N1CCC[C@H]1C(=O)N[C@@H](CCCCNC(=O)[C@@H]1CCCN1C(=O)[C@H](CC(C)C)NC(=O)[C@H](Cc1ccccc1)NC(=O)CNC(=O)CNC(=O)[C@@H](N)Cc1ccc(O)cc1)C(N)=O [M34,A, Galanin(1-13)-Lys amide (Pro-Leuenkephalin(5-1))] | 10 | IC50 (galanin receptor [2]; read-out: IC50): 10 nM
4 | CC[C@H](C)[C@H](NC(=O)[C@H](Cc1ccc(O)cc1)NC(=O)[C@H](Cc1c[nH]cn1)NC(=O)[C@H](CCCNC(=N)N)NC(=O)[C@@H]1CCCN1C(=O)CNC(=O)[C@H](CC(C)C)NC(=O)[C@H](CC(C)C)NC(=O)[C@H](Cc1ccc(O)cc1)NC(=O)CNC(=O)[C@H](C)NC(=O)[C@H](CO)NC(=O)[C@H](CC(N)=O)NC(=O)[C@H](CC(C)C)NC(=O)[C@@H](NC(=O)[C@H](Cc1c[nH]c2ccccc12)NC(=O)CN)[C@@H](C)O)C(=O)N[C@@H](CC(N)=O)C(=O)N[C@@H](CC(C)C)C(=O)N[C@H](C(=O)N[C@H](C(=O)N[C@@H](CCCNC(=N)N)C(=O)N[C@@H](CCC(N)=O)C(=O)N[C@@H](CCCNC(=N)N)C(=O)N[C@@H](Cc1ccc(O)cc1)C(N)=O)[C@@H](C)O)[C@@H](C)CC [M 32, Galanin(1-13)-NPY(25-36) amide] | 0.05 | 
5 | CC(C)C[C@H](NC(=O)[C@H](CC(C)C)NC(=O)[C@H](Cc1ccc(O)cc1)NC(=O)CNC(=O)[C@H](C)NC(=O)[C@H](CO)NC(=O)[C@H](CC(N)=O)NC(=O)[C@H](CC(C)C)NC(=O)[C@@H](NC(=O)[C@H](Cc1c[nH]c2ccccc12)NC(=O)CN)[C@@H](C)O)C(=O)NCC(=O)N1CCC[C@H]1C(=O)N1CCC[C@H]1C(=O)N1CCC[C@H]1C(=O)NCC(=O)N[C@@H](Cc1ccccc1)C(=O)N[C@@H](CO)C(=O)N1CCC[C@H]1C(=O)N[C@@H](Cc1ccccc1)C(=O)N[C@@H](CCCNC(=N)N)C(N)=O [M 35, Galanin(1-13)-Bradykinin(2-9) amide] | 0.2 | IC50 (galanin receptor [2]; read-out: IC50): 0.1 nM
6 | GWTLNSAGYLLGARHYINLITRQRY-NH2 [M 88, Galanin(1-12)-Ala-NPY(25-36) amide] | 1 | 
7 | GWTLNSAGYLLGPALALALA-NH2 [M 38, Galanin(1-13)-AlaLeuAlaLeuAlaLeuAla amide] | 0.2 | 
8 | GWTLNSAGYLLGPPGFSPFR-NH2 [M20, Galanin(1-13)-Bradykinin(3-9) amide] | 1 | 
9 | GWTLNSAGYLLGPPPALALA-NH2 [M 40, Galanin(1-12)- -ProProProAlaLeuAlaLeuAla amide] | 13 | 
10 | GWTLNSAGYLLGPPPLFGGY-NH2 [M36,A, Galanin(1-12)-ProProPro-Leuenkephalin(5-1) amide] | 20 | 
11 | GWTLNSAGYLLGPPPQQFFGLM-NH2 [M37, Galanin(1-12)-ProProPro-SP(5-11) amide] | 40 | 
12 | GWTLNSAGYLLGPPPYGGFL-NH2 [M 36, Galanin(1-12)-ProProPro-Leuenkephalin(1-5) amide] | 40 | 
13 | Rat galanin: galanin of rat sequence, unlabeled displacer [reference compound] |  | Displacement curves, rat versus porcine galanin (galanin receptor [1]; membranes from rat hypothalami): indistriguishable displacement curves
14 | Substance P fragment (4-11): fragment 4-11 of Substance P (PQQFFGLM; ends and bridges not checked; UniProt P20366 61-68, looked up, fragment) [reference compound] |  | IC50 (galanin receptor [2]; read-out: IC50 (no displacement)): > 10000 nM
